From ChEMBL document CHEMBL5209897, “Affinity Phenotypic Cellular Literature for EUbOPEN Chemogenomics Library wave 3” (2023)

Legend:
Activin receptor type-1B = Activin receptor type-1B (Homo sapiens, UniProt P36896); assay: Affinity Phenotypic Cellular interaction (Western blot (inhibition of SMAD2/3 phosphorylation)) EUB0000312b ACVR1B; design: mode of action Inhibitor, recommended concentration 1 uM
[1] = target: Histone-lysine N-methyltransferase SMYD3 (Homo sapiens, UniProt Q9H7B4); assay: Affinity Phenotypic Cellular interaction (Immunoblot (inhibition of MAP3K2 methylation in HeLa cells)) EUB0000221b SMYD3; format: cell-based; design: mode of action Peptide-competitive inhibitor, recommended concentration 1 uM
[2] = target: Hepatocyte growth factor receptor (Homo sapiens) (UniProt P08581); assay: Affinity Phenotypic Cellular interaction (Cell proliferation assay (in Hs746T cells)) EUB0000293b MET; format: functional, cell-based; design: recommended concentration 1 uM; details: Affinity Phenotypic Cellular Source Knowledge https://www.sgc-ffm.uni-frankfurt.de/#!specificprobeoverview/BAY-474
[3] = target: T1, Serine/threonine-protein kinase PLK1 (Homo sapiens, UniProt P53350); details: Affinity Phenotypic Cellular Source Knowledge https://doi.org/10.1158/0008-5472.CAN-09-0945
[4] = target: Phosphatidylinositol 4,5-bisphosphate 3-kinase catalytic subunit beta isoform (Homo sapiens, UniProt P42338); assay: Affinity Phenotypic Cellular interaction (MesoScale Discovery assay (AKT phoshorylation in MCF 7 cells)) EUB0000685a PIK3CB; format: cell-based; design: mode of action Inhibitor, recommended concentration 100 nM
[5] = target: Phosphatidylinositol 4,5-bisphosphate 3-kinase catalytic subunit gamma isoform (Homo sapiens, UniProt P48736); assay: Affinity Phenotypic Cellular interaction (MesoScale Discovery assay (AKT phoshorylation in MCF 7 cells)) EUB0000685a PIK3CG; format: cell-based; design: mode of action Inhibitor, recommended concentration 100 nM
[6] = target: Histone-lysine N-methyltransferase KMT5B (Homo sapiens, UniProt Q4FZB7); assay: Affinity Phenotypic Cellular interaction (Western Blot (decrease in di-methylation of H4K20me in U20S cells)) EUB0000193b SUV420H1; format: cell-based; design: mode of action Inhibitor, recommended concentration 1 uM
[7] = target: Histone-lysine N-methyltransferase KMT5C (Homo sapiens, UniProt Q86Y97); assay: Affinity Phenotypic Cellular interaction (Western Blot (decrease in di-methylation of H4K20me in U20S cells)) EUB0000193b SUV420H2; format: cell-based; design: mode of action Inhibitor, recommended concentration 1 uM
[8] = target: Macrophage migration inhibitory factor (Homo sapiens) (UniProt P14174); assay: Affinity Phenotypic Cellular interaction (Cell viability WST-8 assay (measuring inhibition of apoptosis)) EUB0000301b MIF; format: functional; design: recommended concentration 1 uM; details: Affinity Phenotypic Cellular Source Knowledge https://doi.org/10.1016/j.chembiol.2010.10.011, https://www.sgc-ffm.uni-frankfurt.de/#!specificprobeoverview/BTZO-1
[9] = Affinity Phenotypic Cellular interaction (CellTiter-Glo assay (Promega, cell proliferation assay in LNCaP cell line)) EUB0000215b EZH2
[10] = target: Serine/threonine-protein kinase 4 (Homo sapiens, UniProt Q13043); assay: Affinity Phenotypic Cellular interaction (Immunoblotting (phosphorylation of endogenous MOB1; LATS1/2; and YAP in human liver carcinoma (HepG2) cells)) EUB0000178b STK4; design: mode of action Inhibitor, recommended concentration 100 nM
[11] = target: Serine/threonine-protein kinase 3 (Homo sapiens, UniProt Q13188)
Aurora kinase C = Aurora kinase C (Homo sapiens, UniProt Q9UQB9); assay: Affinity Phenotypic Cellular interaction (ELISA (histone H3 serine phosphorylation in A549 cells)) EUB0000674a AURKC; format: cell-based; design: mode of action Inhibitor, recommended concentration 1 uM
Aurora kinase B = Aurora kinase B (Homo sapiens, UniProt Q96GD4); assay: Affinity Phenotypic Cellular interaction (ELISA (histone H3 serine phosphorylation in A549 cells)) EUB0000674a AURKB; format: cell-based; design: mode of action Inhibitor, recommended concentration 1 uM
CREB-binding protein = CREB-binding protein (Homo sapiens, UniProt Q92793); assay: Affinity Phenotypic Cellular interaction (Inhibition of H3K27Ac (DU-145 cells)) EUB0000326a CREBBP
[12] = target: Histone acetyltransferase p300 (Homo sapiens, UniProt Q09472); assay: Affinity Phenotypic Cellular interaction (Inhibition of H3K27Ac (DU-145 cells)) EUB0000326a EP300
Integrin alpha-L = Integrin alpha-L (Homo sapiens, UniProt P20701); format: functional, cell-based; design: mode of action Inhibitor, recommended concentration 100 nM
[13] = target: T1, Serine/threonine-protein kinase PLK1; assay: Affinity Phenotypic Cellular interaction (Immunoblot activity assay (using LAP-Mps1 WT in U2OS cells)) EUB0000608a PLK1; format: cell-based; design: mode of action Inhibitor, recommended concentration 1 uM
[14] = target: Mitogen-activated protein kinase kinase kinase kinase 2 (Homo sapiens, UniProt Q12851); assay: Affinity Phenotypic Cellular interaction (Western Blot (inhibition in IL-1-induced phosphorylation of MAPK14)) EUB0000238b MAP4K2; design: mode of action Inhibitor, recommended concentration 1 uM
[15] = target: MAP kinase-activated protein kinase 2 (Homo sapiens, UniProt P49137); assay: Affinity Phenotypic Cellular interaction (Cell-based TNFa assay (MesoScale Discovery; inhibition of LPS stimulated TNFa production in human U937 cells)) EUB0000056c MAPKAPK2; format: functional; design: mode of action Inhibitor, recommended concentration 1 uM
[16] = target: MAP kinase-activated protein kinase 3 (Homo sapiens, UniProt Q16644); assay: Affinity Phenotypic Cellular interaction (Cell-based TNFa assay (MesoScale Discovery; inhibition of LPS stimulated TNFa production in human U937 cells)) EUB0000056c MAPKAPK3; format: functional; design: mode of action Inhibitor, recommended concentration 1 uM
[17] = target: MAP kinase-activated protein kinase 5 (Homo sapiens, UniProt Q8IW41); assay: Affinity Phenotypic Cellular interaction (Cell-based TNFa assay (MesoScale Discovery; inhibition of LPS stimulated TNFa production in human U937 cells)) EUB0000056c MAPKAPK5; format: functional; design: mode of action Inhibitor, recommended concentration 1 uM
Sequence of MAP kinase-activated protein kinase 5 (Q8IW41 whole entry): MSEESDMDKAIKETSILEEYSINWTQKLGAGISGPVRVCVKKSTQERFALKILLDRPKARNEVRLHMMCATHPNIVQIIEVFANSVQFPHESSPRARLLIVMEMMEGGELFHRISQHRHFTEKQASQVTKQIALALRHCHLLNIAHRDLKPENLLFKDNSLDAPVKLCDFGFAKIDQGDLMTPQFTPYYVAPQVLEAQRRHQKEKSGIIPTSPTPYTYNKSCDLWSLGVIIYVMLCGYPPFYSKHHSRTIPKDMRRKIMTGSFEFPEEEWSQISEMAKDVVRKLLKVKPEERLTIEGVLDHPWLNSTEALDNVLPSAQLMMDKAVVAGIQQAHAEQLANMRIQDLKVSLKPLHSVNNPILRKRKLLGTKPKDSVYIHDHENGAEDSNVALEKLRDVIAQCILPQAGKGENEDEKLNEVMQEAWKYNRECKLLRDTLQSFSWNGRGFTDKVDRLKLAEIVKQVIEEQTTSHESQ

T1 sequence (P53350 whole entry, canonical isoform): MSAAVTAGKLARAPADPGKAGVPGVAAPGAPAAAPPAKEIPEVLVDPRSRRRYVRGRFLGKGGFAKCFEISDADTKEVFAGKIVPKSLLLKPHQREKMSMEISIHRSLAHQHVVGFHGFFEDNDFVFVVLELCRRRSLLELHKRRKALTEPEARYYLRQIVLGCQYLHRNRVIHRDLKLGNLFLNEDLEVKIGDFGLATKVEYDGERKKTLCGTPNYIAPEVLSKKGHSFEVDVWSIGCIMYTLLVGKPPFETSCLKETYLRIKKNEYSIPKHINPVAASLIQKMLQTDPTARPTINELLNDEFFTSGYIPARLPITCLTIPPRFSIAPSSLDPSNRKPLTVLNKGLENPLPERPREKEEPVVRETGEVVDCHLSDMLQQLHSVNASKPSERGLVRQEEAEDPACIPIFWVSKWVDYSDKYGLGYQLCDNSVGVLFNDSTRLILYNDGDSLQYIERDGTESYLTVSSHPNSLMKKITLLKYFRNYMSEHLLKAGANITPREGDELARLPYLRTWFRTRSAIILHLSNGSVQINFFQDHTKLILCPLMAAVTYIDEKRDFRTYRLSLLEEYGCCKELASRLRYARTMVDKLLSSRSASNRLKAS
Sequence of Serine/threonine-protein kinase 3 (Q13188 whole entry): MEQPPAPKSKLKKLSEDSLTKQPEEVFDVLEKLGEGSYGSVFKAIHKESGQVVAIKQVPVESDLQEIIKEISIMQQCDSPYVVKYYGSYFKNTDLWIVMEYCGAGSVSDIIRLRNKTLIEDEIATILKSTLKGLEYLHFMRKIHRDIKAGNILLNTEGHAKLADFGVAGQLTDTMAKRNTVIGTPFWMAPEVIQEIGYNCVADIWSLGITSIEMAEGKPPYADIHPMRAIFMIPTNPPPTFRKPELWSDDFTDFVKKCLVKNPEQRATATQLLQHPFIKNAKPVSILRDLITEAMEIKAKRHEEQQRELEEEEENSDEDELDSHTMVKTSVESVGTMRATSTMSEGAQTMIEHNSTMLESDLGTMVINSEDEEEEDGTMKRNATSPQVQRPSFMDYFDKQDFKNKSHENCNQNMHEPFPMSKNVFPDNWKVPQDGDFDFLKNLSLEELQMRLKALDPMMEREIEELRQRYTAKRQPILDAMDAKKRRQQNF
Sequence of Serine/threonine-protein kinase 4 (Q13043 whole entry): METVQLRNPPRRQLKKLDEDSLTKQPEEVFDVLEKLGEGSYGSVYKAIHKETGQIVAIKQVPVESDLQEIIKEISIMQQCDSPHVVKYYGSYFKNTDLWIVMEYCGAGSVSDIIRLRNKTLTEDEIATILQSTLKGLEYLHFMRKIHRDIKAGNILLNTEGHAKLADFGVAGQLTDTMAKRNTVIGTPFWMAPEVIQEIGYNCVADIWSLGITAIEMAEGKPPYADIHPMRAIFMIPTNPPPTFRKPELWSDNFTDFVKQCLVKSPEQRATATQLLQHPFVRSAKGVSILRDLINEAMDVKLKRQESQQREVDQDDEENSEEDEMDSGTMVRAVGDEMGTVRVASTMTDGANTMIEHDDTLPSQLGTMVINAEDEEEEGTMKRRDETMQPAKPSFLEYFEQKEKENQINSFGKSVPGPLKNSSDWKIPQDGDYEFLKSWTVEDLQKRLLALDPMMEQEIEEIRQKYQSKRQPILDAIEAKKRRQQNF
Sequence of Mitogen-activated protein kinase kinase kinase kinase 2 (Q12851 whole entry): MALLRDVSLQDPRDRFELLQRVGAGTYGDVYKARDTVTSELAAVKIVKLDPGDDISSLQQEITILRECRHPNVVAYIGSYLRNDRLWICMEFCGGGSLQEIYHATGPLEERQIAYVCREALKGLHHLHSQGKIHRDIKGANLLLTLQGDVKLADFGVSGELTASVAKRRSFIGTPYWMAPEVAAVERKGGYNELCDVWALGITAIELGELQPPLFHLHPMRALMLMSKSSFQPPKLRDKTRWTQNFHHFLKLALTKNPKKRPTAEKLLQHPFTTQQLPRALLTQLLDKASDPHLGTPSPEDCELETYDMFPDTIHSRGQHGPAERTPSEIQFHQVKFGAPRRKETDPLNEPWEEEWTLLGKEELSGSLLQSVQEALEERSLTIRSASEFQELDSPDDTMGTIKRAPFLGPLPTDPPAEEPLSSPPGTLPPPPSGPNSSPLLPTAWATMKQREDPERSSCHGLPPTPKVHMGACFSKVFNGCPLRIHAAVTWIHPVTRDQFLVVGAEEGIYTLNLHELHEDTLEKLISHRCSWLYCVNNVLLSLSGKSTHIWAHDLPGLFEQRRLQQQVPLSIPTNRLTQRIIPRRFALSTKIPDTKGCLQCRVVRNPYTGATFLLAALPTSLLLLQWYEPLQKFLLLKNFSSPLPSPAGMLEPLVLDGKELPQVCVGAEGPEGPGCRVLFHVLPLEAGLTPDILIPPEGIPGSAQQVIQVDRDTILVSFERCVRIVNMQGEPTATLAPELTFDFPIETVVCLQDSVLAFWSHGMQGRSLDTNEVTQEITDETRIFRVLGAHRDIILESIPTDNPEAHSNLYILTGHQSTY
Sequence of Phosphatidylinositol 4,5-bisphosphate 3-kinase catalytic subunit gamma isoform (P48736 whole entry, canonical isoform): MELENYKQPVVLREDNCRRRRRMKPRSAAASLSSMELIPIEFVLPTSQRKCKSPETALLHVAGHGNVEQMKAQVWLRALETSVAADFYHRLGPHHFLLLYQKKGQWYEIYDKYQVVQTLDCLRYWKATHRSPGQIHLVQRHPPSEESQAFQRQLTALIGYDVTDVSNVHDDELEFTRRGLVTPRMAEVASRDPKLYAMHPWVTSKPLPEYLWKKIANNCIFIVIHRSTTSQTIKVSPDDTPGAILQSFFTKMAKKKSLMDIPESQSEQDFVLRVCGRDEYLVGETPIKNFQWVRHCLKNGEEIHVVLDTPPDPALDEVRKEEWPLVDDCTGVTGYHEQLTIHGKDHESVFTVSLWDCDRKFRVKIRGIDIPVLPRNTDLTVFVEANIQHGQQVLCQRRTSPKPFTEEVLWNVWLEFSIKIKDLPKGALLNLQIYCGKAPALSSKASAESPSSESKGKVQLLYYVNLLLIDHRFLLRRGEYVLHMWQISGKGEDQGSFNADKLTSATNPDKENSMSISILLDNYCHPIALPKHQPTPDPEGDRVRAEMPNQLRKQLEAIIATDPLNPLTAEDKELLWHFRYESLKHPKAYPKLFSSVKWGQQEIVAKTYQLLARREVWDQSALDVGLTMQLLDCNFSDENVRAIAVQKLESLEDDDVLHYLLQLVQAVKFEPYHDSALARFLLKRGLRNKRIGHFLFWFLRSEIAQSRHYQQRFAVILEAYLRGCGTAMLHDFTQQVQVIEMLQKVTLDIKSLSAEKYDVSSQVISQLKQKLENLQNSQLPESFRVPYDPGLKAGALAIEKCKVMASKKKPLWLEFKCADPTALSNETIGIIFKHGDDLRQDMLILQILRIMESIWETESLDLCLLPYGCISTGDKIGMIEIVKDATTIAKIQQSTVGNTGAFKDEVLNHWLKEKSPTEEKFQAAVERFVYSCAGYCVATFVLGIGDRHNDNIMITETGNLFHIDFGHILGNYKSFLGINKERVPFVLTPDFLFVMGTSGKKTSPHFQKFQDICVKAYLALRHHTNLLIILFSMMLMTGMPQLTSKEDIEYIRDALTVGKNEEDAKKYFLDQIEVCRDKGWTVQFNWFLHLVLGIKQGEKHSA
Sequence of MAP kinase-activated protein kinase 3 (Q16644 whole entry): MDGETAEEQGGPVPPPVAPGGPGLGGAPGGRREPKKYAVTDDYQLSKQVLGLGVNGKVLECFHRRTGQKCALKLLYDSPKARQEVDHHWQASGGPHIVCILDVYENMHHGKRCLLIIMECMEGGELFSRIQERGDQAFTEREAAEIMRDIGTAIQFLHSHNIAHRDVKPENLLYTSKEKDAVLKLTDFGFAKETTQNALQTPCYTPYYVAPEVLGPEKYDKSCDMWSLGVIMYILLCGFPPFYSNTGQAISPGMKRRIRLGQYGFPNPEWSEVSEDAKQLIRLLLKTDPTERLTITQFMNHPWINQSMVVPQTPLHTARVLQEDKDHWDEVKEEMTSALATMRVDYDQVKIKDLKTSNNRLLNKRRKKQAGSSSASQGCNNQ
Sequence of Aurora kinase C (Q9UQB9 whole entry): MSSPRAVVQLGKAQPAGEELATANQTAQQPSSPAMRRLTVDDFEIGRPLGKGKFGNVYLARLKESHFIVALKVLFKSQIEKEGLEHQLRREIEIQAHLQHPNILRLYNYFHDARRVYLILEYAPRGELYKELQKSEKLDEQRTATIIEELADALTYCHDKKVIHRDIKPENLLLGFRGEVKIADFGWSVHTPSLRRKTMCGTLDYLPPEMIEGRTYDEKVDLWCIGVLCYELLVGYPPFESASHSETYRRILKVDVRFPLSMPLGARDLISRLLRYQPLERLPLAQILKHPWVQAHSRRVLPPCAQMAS
Sequence of Macrophage migration inhibitory factor (Homo sapiens) (P14174 whole entry): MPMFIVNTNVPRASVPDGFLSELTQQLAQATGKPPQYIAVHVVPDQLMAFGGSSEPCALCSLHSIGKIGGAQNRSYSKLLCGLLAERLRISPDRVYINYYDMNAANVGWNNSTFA

Cc1cnc(-c2cc(Cl)ccc2F)cc1-n1c(=O)n(CC(N)=O)c2cnccc21 [TP-008]
EC50 (Activin receptor type-1B): > 1000 nM

C[C@H]1CC(=O)Nc2cc(C(=O)NCCC3CC3)ccc2N1C(=O)N1CC2CC2C1 (some centres not stated)
IC50 [1]: 183 nM

CC1=C(C#N)C(c2ccc3[nH]nc(C)c3c2)C(C#N)=C(C)N1
IC90 [2]: 56 nM

C[C@@H](Oc1cc(-n2cnc3ccc(CN4CCN(C)CC4)cc32)sc1C(N)=O)c1ccccc1C(F)(F)F
GIC50 [3]: 6.4 nM

Cc1nc(-c2cn3c(n2)-c2ccc(-c4cnn(C(C)(C)C(N)=O)c4)cc2OCC3)n(C(C)C)n1 [TASELISIB]
IC50 [4]: 4 nM | IC50 [5]: 4 nM

Clc1cc2c(NC3CCCC3)nnc(-c3ccncc3)c2cc1Cl
EC50 [6]: 262 nM | EC50 [7]: 262 nM

O=c1nc(-c2ccccn2)sc2ccccc12
MEC1.5 [8]: 16 nM

CCCc1cc(C)[nH]c(=O)c1CNC(=O)c1cc(-c2ccnc(N3CCN(C)CC3)c2)cc2c1cnn2C(C)C
IC50 [9]: 2900 nM

CN1C(=O)c2sccc2N(C)c2nc(Nc3ccc(S(N)(=O)=O)cc3)ncc21
EC50 [10]: > 100 nM | EC50 [11]: > 100 nM

CCn1cc(-c2ccnc3[nH]c(-c4cccc(CN(C)C)c4)cc23)c(-c2ccc(NC(=O)N(C)C)cc2)n1 [GSK-1070916]
EC50 (Aurora kinase C): 46 nM | EC50 (Aurora kinase B): 46 nM

CNC(=O)Nc1ccc2c(c1)[C@@]1(CC2)OC(=O)N(CC(=O)N(Cc2ccc(F)cc2)[C@@H](C)C(F)(F)F)C1=O [A-486]
IC50 (CREB-binding protein): > 10000 nM | IC50 [12]: > 10000 nM

C[C@H](NC(=O)c1cnc2n1[C@](C)(Cc1ccc(C#N)cc1)C(=O)N2c1cc(Cl)c(F)c(Cl)c1)C(=O)NC1(c2ccccn2)CC1 [BI 1950]
IC50 (Integrin alpha-L): 3 nM

CCOc1cc(N2CCC(O)CC2)ccc1Nc1ncc2c(n1)N(C1CCCC1)CCC(=O)N2C
IC50 [13]: 160 nM

CNc1cc(Oc2cc(C(=O)Nc3cc(N4CCN(C)CC4)cc(C(F)(F)F)c3)ccc2C)ncn1
EC50 [14]: 500 nM

Cc1ccc(-c2ccc3c(ccc4sc5c(c43)NC[C@@H](C)NC5=O)n2)cn1
IC50 [15]: 159 nM | IC50 [16]: 159 nM | IC50 [17]: 159 nM
